The text below walks through data of patent US5250541A, “Kynurenic acid derivatives, their preparation and pharmaceutical compositions containing them” (Fidia S.p.A., priority 1989, dated 1993).

The structures appear in SMILES notation. Like-named read-outs stand apart in the source and are kept apart here.

Assay [1] relates to NMDA receptors present on guinea-pig ileum. As to the kind of experiment: antagonism of glutamate or NMDA actions on guinea-pig ileum. It counts as cell-based. The note with it: guinea-pig terminal ileum; read-out: concentration antagonising 50% of glutamate or NMDA actions. An excerpt: 2) they antagonise in […] way the glutamate effect on NMDA receptors present on guinea-pig ileum: on this test their effect is competitively antagonized by glycine.

In assay [2] the test system is cultured cells. As to the kind of experiment: prevention of glutamate toxicity in cultured cells. The format is cell-based. An excerpt: (§1) The compounds I were also active in mouse cerebral cortex slices according to Proc. Natl. Acad. Sci. USA 85; 6547-6550--1988, in the prevention of glutamate toxicity in cultured cells and in the prevention of NMDA induced convulsions in mice.

Assay [3] deals with mouse cerebral cortex slices. The assay can be described thus: antagonism of glutamate or NMDA actions on mouse cerebral cortex slices. The format is cell-based. Conditions: brain slices, read-out: concentration antagonising 50% of glutamate or NMDA actions.
From the text: as §1

Assay [4] addresses T1, glycine recognition site of the NMDA receptor-ion channel complex (cortical membranes), UniProt Q05586).
T1 construct: from tissue
The assay can be described thus: displacement of labelled glycine from cortical membranes. It counts as binding. The note with it: cortical membranes; read-out: concentration displacing 50% of labelled glycine from its binding sites. An excerpt:
(§2) 1) they displace labelled glycine from cortical membranes with an EC50 value 5-10 times lower than that of kynurenate;

Assay [5] deals with NMDA receptors present on guinea-pig ileum. Conditions: guinea-pig myenteric plexus; cited from earlier work.
The target of assay [6] is T2, glycine recognition site of the NMDA receptor-ion channel complex (cortical membranes) (Homo sapiens, UniProt Q05586).
T2 construct: from tissue
As to the kind of experiment: displacement of labelled glycine from cortical membranes. The format is binding.
From the text: as §2

On to `O=C(O)c1cc(S)c2ccc(Cl)cc2n1` [7-chloro-4-thiokynurenic acid, 7-chloro-4-thio-quinoline-2-carboxylic acid], for which the IC50 in assay [1] was found to be 5 µM; in assay [3] it was 5 µM; in assay [4], 1 µM. In addition, in assay [2], the “concentration antagonising the glutamate neurotoxicity” value was 0.08 µM.

Consider `O=C(O)c1cc(=O)c2ccccc2[nH]1` [kynurenic acid], for which the “antagonistic activity of the glutamate effect” value in assay [5] was “antagonistic activity of the glutamate effect”.

As to `O=C(O)c1cc(S)c2ccccc2n1` [thiokynurenic acid, 4-thio-quinoline-2-carboxylic (thiokynurenic) acid], the “mode of action at the glycine receptors” value is reported as “competitive antagonists of the glycine receptors” in assay [6] and “competitive antagonists of a particular kind of glycine receptors” in assay [6] (listed as 4thiokynurenic acid).
